Results as given in US11040976B2, “Substrate selective inhibitors of insulin-degrading enzyme (IDE) and uses thereof” (President and Fellows of Harvard College, priority 2015, dated 2021).

These compounds were tested against T1, Human N-His6-IDE42-1019 (E. coli expressed) (Homo sapiens, UniProt P14735) (assay: Fluorescence anisotropy high-throughput screening assay (displacement of probe FL-6b)). Details: final compound concentration 20 μM (6bK control 1 μM); values without asterisk.
T1 construct: Human N-His6-IDE42-1019 (E. coli expressed); made in house; host or cells: E. coli (Rosetta 2 (DE3) pLysS, plasmid pTrcHis-A)
T1 sequence (P14735 42-1019): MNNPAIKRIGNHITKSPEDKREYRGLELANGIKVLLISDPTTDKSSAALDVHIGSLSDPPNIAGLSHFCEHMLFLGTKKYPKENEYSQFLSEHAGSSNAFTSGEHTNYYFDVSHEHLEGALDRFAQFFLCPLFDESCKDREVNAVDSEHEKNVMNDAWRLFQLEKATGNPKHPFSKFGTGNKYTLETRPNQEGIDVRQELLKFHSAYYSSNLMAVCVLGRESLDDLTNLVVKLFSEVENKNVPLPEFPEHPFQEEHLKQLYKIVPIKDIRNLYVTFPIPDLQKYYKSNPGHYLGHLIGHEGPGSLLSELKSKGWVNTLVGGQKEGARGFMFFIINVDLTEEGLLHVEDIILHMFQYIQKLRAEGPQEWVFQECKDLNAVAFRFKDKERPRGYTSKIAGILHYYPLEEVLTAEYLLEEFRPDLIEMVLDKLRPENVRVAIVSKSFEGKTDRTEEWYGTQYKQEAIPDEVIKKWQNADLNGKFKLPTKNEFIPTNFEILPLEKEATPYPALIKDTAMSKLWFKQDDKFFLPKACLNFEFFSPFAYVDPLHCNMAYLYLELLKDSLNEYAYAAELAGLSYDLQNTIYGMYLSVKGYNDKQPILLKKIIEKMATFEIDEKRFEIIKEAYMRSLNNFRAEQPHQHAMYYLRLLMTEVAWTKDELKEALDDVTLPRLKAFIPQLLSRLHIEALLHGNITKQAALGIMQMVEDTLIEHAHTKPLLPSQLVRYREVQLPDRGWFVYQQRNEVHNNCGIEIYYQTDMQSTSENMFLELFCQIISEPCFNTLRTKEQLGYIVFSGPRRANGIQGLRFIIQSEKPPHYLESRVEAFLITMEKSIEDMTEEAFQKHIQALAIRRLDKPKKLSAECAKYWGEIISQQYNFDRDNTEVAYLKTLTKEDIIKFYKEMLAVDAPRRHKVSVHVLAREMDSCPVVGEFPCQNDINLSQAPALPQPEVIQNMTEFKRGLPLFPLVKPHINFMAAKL
Format: binding
Protocol: The fluorescence anisotropy screening method and probe FL-6b are described in PCT application PCT/US2014/064322, incorporated herein by reference.
Human N-His6-IDE42-1019 (E. coli expressed) was mixed with fluorescein-labeled macrocycle FL-6b:
[drawing 802] in 50 mM Tris buffer pH 8.0, with 1 M NaCl, at 25° C. Optimum signal was obtained using a mixture of […] probe FL-6b and 0.5 μM IDE. The “diversity-oriented (DOS) synthesis informer set” compound plates were pinned onto 384-well plates containing the enzyme-probe mixture (50 μL/well). The azetidine screen was pre-printed on 384-well plates and the enzyme-probe mixture was added (50 μL/well). The final compound concentration was 20 μM. IDE inhibitor 6bK was used as a positive control at a final concentration of 1 μM. After 30 minutes of equilibration, the increase in fluorescence anisotropy was recorded using an EnVision spectrophotometer (excitation 492 nm, emission 523 nm). The fluorescence anisotropy was independently measured twice for each screened compound. The Z-scores for each pair of measurements are plotted in FIG. 1A (DOS informer set) and FIG. 1B (azetidines), and average Z-scores are listed for exemplary compounds in Table E1.
Z-scores were calculated based on the raw anisotropy measured for each well according to Eq. 1, wherein x is the raw anisotropy value of the well, μ is the mean of the anisotropy of the negative control wells (DMSO) for the plate, and σ is the standard deviation in anisotropy of the negative control wells (DMSO) for the plate.

Row | SMILES | Average Z-score (Fluorescence anisotropy)
1 | Cc1ccccc1-c1ccc([C@H]2[C@@H](CO)N3CCCCN(C(=O)Cc4ccccn4)C[C@@H]23)cc1 [compound 890] | −5.69
2 | Cc1cccc(-c2ccc([C@@H]3[C@@H](CO)N4C(=O)CN(C(=O)NC5CCCCC5)C[C@@H]34)cc2)c1 [compound 904] | −16.59
3 | Cc1ccccc1-c1ccc([C@@H]2[C@H](CO)N3CCCCN(C(=O)NC4CCCC4)C[C@@H]23)cc1 [compound 932] | −19.01
4 | Cc1cccc(-c2ccc([C@@H]3[C@@H](CO)N4CCCCN(S(=O)(=O)c5cccs5)C[C@@H]34)cc2)c1 [compound 945] | −3.77
5 | Cc1cccc(-c2ccc([C@H]3[C@@H](CO)N4CCCCN(Cc5cccnc5)C[C@H]34)cc2)c1 [compound 959] | −6.79
6 | Cc1ccccc1-c1ccc([C@H]2[C@@H](CO)N3CCCCN(C(=O)Nc4ccccc4)C[C@@H]23)cc1 [compound 1570] | −1.37

Now from value to compound:

Row | Average Z-score (Fluorescence anisotropy) | SMILES
7 | −18.53 | Cc1ccccc1-c1ccc([C@@H]2[C@H]3CN(S(=O)(=O)c4cn(C)cn4)CCCCN3[C@H]2CO)cc1 [compound 868]
8 | −19.69 | CCS(=O)(=O)N1CCCCN2[C@@H](CO)[C@@H](c3ccc(C#Cc4ccccc4OC)cc3)[C@@H]2C1 [compound 964]
9 | −17.16 | Cc1ccccc1-c1ccc([C@H]2[C@@H](CO)N3C(=O)CN(C(=O)c4cccnc4)C[C@H]23)cc1 [compound 3421]

Same assay, conditions: values marked *: from the screen using the diversity-oriented synthesis (DOS) informer set of plates; 20 μM

Row | Average Z-score (Fluorescence anisotropy) | SMILES
10 | −12.81* | COc1ccccc1-c1ccc([C@H]2[C@@H](CO)N3CCCCN(C(=O)c4cccnc4)C[C@H]23)cc1 [compound 983]

Each compound was assayed against T2, recombinant human IDE42-1019 (Homo sapiens, UniProt P14735) (assay: Protease assay with fluorogenic peptide substrate Mca-[…](Dnp)-OH). Details: fluorogenic peptide Mca-RPPGFSAFK(Dnp)-OH; apparent IC50 for compounds with submaximal inhibition; read-out: IC50 (μM) Proteolysis.
T2 construct: recombinant human IDE42-1019 (R&D Systems); purchased R&D Systems
T2 sequence (P14735 42-1019): T1 sequence (P14735 42-1019)
Format: biochemical

Row | SMILES | IC50
11 | Cc1ccccc1-c1ccc([C@H]2[C@@H](CO)N3CCCCN(C(=O)Cc4ccccn4)C[C@@H]23)cc1 [compound 890] | > 100 µM
12 | Cc1cccc(-c2ccc([C@@H]3[C@@H](CO)N4C(=O)CN(C(=O)NC5CCCCC5)C[C@@H]34)cc2)c1 [compound 904] | > 5 µM
13 | Cc1ccccc1-c1ccc([C@@H]2[C@H](CO)N3CCCCN(C(=O)NC4CCCC4)C[C@@H]23)cc1 [compound 932] | > 20 µM
14 | Cc1cccc(-c2ccc([C@H]3[C@@H](CO)N4CCCCN(Cc5cccnc5)C[C@H]34)cc2)c1 [compound 959] | > 60 µM
15 | COc1ccccc1-c1ccc([C@H]2[C@@H](CO)N3CCCCN(C(=O)c4cccnc4)C[C@H]23)cc1 [compound 983] | > 20 µM
16 | Cc1ccccc1-c1ccc([C@H]2[C@@H](CO)N3CCCCN(C(=O)Nc4ccccc4)C[C@@H]23)cc1 [compound 1570] | 7 µM

More lines, now with the values ahead:

Row | IC50 | SMILES
17 | 2.5 µM | Cc1ccccc1-c1ccc([C@@H]2[C@H]3CN(S(=O)(=O)c4cn(C)cn4)CCCCN3[C@H]2CO)cc1 [compound 868]
18 | 2.5 µM | CCS(=O)(=O)N1CCCCN2[C@@H](CO)[C@@H](c3ccc(C#Cc4ccccc4OC)cc3)[C@@H]2C1 [compound 964]
19 | 2 µM | Cc1ccccc1-c1ccc([C@H]2[C@@H](CO)N3C(=O)CN(C(=O)c4cccnc4)C[C@H]23)cc1 [compound 3421]

Same assay, conditions: fluorogenic peptide Mca-RPPGFSAFK(Dnp)-OH; plateau at high inhibitor concentration; read-out: Imax (%) Proteolysis (inhibition maximum)

Row | SMILES | Emax
20 | Cc1ccccc1-c1ccc([C@@H]2[C@H](CO)N3CCCCN(C(=O)NC4CCCC4)C[C@@H]23)cc1 [compound 932] | 90%
21 | Cc1cccc(-c2ccc([C@@H]3[C@@H](CO)N4CCCCN(S(=O)(=O)c5cccs5)C[C@@H]34)cc2)c1 [compound 945] | 30%
22 | COc1ccccc1-c1ccc([C@H]2[C@@H](CO)N3CCCCN(C(=O)c4cccnc4)C[C@H]23)cc1 [compound 983] | 90%
23 | Cc1ccccc1-c1ccc([C@H]2[C@@H](CO)N3CCCCN(C(=O)Nc4ccccc4)C[C@@H]23)cc1 [compound 1570] | 40%

Next, values leading:

Row | Emax | SMILES
24 | 40% | Cc1ccccc1-c1ccc([C@@H]2[C@H]3CN(S(=O)(=O)c4cn(C)cn4)CCCCN3[C@H]2CO)cc1 [compound 868]
25 | 90% | CCS(=O)(=O)N1CCCCN2[C@@H](CO)[C@@H](c3ccc(C#Cc4ccccc4OC)cc3)[C@@H]2C1 [compound 964]
26 | 60% | Cc1ccccc1-c1ccc([C@H]2[C@@H](CO)N3C(=O)CN(C(=O)c4cccnc4)C[C@H]23)cc1 [compound 3421]
